Key:
[1] = target: T1, Purified recombinant ADAMTS-7 (rat prodomain/human catalytic domain, SEQ ID No. 01 or 02) (Homo sapiens, UniProt Q9UKP4); experiment: Assay for ADAMTS-7 enzymatic activity (FRET substrate cleavage); assay type: biochemical; settings: FRET substrate SEQ ID No. 11, 120 min at 32° C.; read-out: ADAMTS7-IC50
T1 construct: rat ADAMTS-7 signal peptide + prodomain (rat 1-217, Q1EHB3) (N); 2xStrep tag (C); 6xHis tag (C); made in house; host or cells: Expi293 cells
T1 sequence (Q9UKP4 237-537): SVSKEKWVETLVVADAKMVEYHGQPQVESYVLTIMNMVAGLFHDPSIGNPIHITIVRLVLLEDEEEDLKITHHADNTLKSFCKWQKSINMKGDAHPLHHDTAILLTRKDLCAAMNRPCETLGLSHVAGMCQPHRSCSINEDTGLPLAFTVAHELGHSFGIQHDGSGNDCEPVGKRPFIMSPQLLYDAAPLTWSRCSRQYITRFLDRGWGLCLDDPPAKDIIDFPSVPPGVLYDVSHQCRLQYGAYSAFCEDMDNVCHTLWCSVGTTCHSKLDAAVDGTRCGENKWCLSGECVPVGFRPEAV
Experimental: Purified recombinant ADAMTS-7 (as of SEQ ID No. 01 or SEQ ID No. 02) was diluted in reaction buffer (20 mM HEPES pH 8.0, 150 mM NaCl, 5 mM CaCl2, 0.004% Brij, 10 μM ZnCl2) fora concentration of approximately 20 nM. 25 μl of the solution were transferred into each well of a 384-well white microtiter plate (Greiner Bio-One 781075) and 1 μl test compound solution (modulator/inhibitor dissolved in DMSO, at the corresponding concentration) or pure DMSO as a control were added per well. […] Amino acids […] are derived from Thrombospondin-1 sequence (275-289). An additional carboxyl glutamic acid was added after the QXL520 quencher to increase substrate solubility. The microtiter plate was incubated for 120 min at the temperature of 32° C. The increase of fluorescence intensity was measured in appropriate fluorescence plate reader (e.g. TECAN Ultra) using excitation wavelength of 485 nm and emission wavelength of 520 nm. IC50 values were calculated from percentage of inhibition of ADAMTS-7 activity as a function of test compound concentration.

[2] = target: T2, ADAMTS4 (Homo sapiens, UniProt O75173); experiment: Selectivity assay for ADAMTS-7 modulators (FRET), ADAMTS4; assay type: biochemical; settings: 50 nM enzyme (R&D 4307-AD), 1 μM Dabcyl/Edans FRET substrate, 120 min at 32° C.
T2 construct: purchased R&D 4307-AD
T2 sequence (O75173 213-685 limits assumed): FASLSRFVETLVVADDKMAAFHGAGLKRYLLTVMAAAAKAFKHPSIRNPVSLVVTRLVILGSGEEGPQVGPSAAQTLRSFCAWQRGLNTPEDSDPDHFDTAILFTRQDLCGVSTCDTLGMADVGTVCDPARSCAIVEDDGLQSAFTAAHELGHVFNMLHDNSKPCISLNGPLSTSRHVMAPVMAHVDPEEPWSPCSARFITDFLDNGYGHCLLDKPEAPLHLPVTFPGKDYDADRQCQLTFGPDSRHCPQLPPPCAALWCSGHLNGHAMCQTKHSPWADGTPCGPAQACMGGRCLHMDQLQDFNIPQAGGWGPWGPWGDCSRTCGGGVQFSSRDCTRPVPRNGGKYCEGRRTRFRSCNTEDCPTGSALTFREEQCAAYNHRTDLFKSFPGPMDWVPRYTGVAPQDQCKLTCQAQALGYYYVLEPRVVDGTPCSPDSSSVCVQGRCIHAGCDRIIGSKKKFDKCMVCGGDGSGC
Experimental: The respective enzyme (see table 2 below) was diluted in reaction buffer (50 mM Tris, 2.5 μM ZnCl2, 0.05% BSA, 0.001% Brij, pH 7.5 for ADAM17; 50 mM Tris 7.5, 150 mM NaCl, 10 mM CaCl2, 0.05% Brij for all other enzymes) to the respective concentration and 25 μl were transferred into each well of a 384-well white microtiter plate (Greiner Bio One 781075). 1 μl test compound solution (dissolved in DMSO, at the corresponding concentration) or pure DMSO as a control was added per well. The enzymatic reaction was initiated by addition of 25 μl of the respective concentration of the respective FRET substrate (see table 2 below) in reaction buffer. The microtiter plate was incubated for 120 min at the temperature of 32° C. The increase of fluorescence intensity was measured in appropriate fluorescence plate reader (e.g. TECAN Ultra) using the respective wavelengths for excitation and emission. IC50 values were calculated from percentage of inhibition of enzyme activity as a function of test compound concentration.

| SMILES | IC50 [1] [nM] | IC50 [2] [µM] |
| --- | --- | --- |
| CC(C)(C)C1(CNC(=O)c2cnn(-c3ccc(C(F)(F)F)c(F)c3)n2)NC(=O)NC1=O (racemic) [Example 2, rac-N-{[4-tert-butyl-2,5-dioxoimidazolidin-4-yl]methyl}-2-[3-fluoro-4-(trifluoromethyl)phenyl]-2H-1,2,3-triazole-4-carboxamide] | 210 |  |
| CC(C)(C)C1(CNC(=O)c2cnn(-c3cccc(F)c3)n2)NC(=O)NC1=O (racemic) [Example 4, rac-N-{[4-tert-butyl-2,5-dioxoimidazolidin-4-yl]methyl}-2-(3-fluorophenyl)-2H-1,2,3-triazole-4-carboxamide] | 260 | 6.6 |
| CC(C)(C)C1(CNC(=O)c2cnn(-c3ccc(C(F)(F)F)cc3)n2)NC(=O)NC1=O (racemic) [Example 6, rac-N-[(4-tert-butyl-2,5-dioxoimidazolidin-4-yl)methyl]-2-[4-(trifluoromethyl)phenyl]-2H-1,2,3-triazole-4-carboxamide] | 620 |  |
| O=C1NC(=O)C(CNC(=O)c2cnn(-c3ccccc3)n2)(c2ccccn2)N1 (racemic) [Example 20, rac-N-{[2,5-dioxo-4-(pyridin-2-yl)imidazolidin-4-yl]methyl}-2-phenyl-2H-1,2,3-triazole-4-carboxamide] | 26 | 4.8 |
| O=C1NC(=O)C(CNC(=O)c2cnn(-c3ccccc3)n2)(c2ccncc2)N1 (racemic) [Example 21, rac-N-{[2,5-dioxo-4-(pyridin-4-yl)imidazolidin-4-yl]methyl}-2-phenyl-2H-1,2,3-triazole-4-carboxamide] | 200 | 2.8 |
| O=C1NC(=O)C(CNC(=O)c2cnn(-c3ccc(F)cc3)n2)(c2ccccn2)N1 (racemic) [Example 22, rac-N-{[2,5-dioxo-4-(pyridin-2-yl)imidazolidin-4-yl]methyl}-2-(4-fluorophenyl)-2H-1,2,3-triazole-4-carboxamide] | 10 | 3 |
| O=C1NC(=O)C(CNC(=O)c2cnn(-c3ccc(F)cc3)n2)(c2cccnc2)N1 (racemic) [Example 23, rac-N-{[2,5-dioxo-4-(pyridin-3-yl)imidazolidin-4-yl]methyl}-2-(4-fluorophenyl)-2H-1,2,3-triazole-4-carboxamide] | 30 | 4.5 |
| O=C1NC(=O)C(CNC(=O)c2cnn(-c3ccc(F)cc3)n2)(c2ccncc2)N1 (racemic) [Example 24, rac-N-{[2,5-dioxo-4-(pyridin-4-yl)imidazolidin-4-yl]methyl}-2-(4-fluorophenyl)-2H-1,2,3-triazole-4-carboxamide] | 140 | 2.9 |
| CCCCC1(CNC(=O)c2cnn(-c3ccccc3)n2)NC(=O)NC1=O (racemic) [Example 51, rac-N-[(4-butyl-2,5-dioxoimidazolidin-4-yl)methyl]-2-phenyl-2H-1,2,3-triazole-4-carboxamide] | 89 | 15 |
| O=C1NC(=O)C(CNC(=O)c2cnn(-c3ccc(F)cc3)n2)(CC2CC2)N1 (racemic) [Example 64, rac-N-[4-(cyclopropylmethyl)-2,5-dioxoimidazolidin-4-yl)methyl]-2-(4-fluorophenyl)-2H-1,2,3-triazole-4-carboxamide] | 240 |  |
| O=C1NC(=O)C(CNC(=O)c2cnn(-c3ccc(F)cc3)n2)(c2ncsc2C2CC2)N1 (racemic) [Example 157, rac-N-{[4-(5-cyclopropyl-1,3-thiazol-4-yl)-2,5-dioxoimidazolidin-4-yl]methyl}-2-(4-fluorophenyl)-2H-1,2,3-triazole-4-carboxamide] |  | 0.46 |
| O=C1NC(=O)C(CNC(=O)c2cnn(-c3ccc(F)cc3)n2)(c2ccccn2)N1 (single isomer, unassigned) [Example 138, ent-N-{[2,5-dioxo-4-(pyridin-2-yl)imidazolidin-4-yl]methyl}-2-(4-fluorophenyl)-2H-1,2,3-triazole-4-carboxamide] | 590 |  |
| C[C@@H](NC(=O)c1cnn(-c2ccccc2)n1)C1(C2CC2)NC(=O)NC1=O (stereo partly drawn) [Example 39, ent-N-((1R)-1-(4-Cyclopropyl-2,5-dioxoimidazolidin-4-yl)ethyl)-2-phenyl-2H-1,2,3-triazole-4-carboxamide] | 710 |  |

The remaining lines, values ahead:

| IC50 [1] [nM] | IC50 [2] [µM] | SMILES |
| --- | --- | --- |
| 62 | 8.5 | O=C1NC(=O)C(CNC(=O)c2cnn(-c3ccccc3)n2)(C2CCCOC2)N1 (racemic) [Example 7, rac-N-{[2,5-dioxo-4-(tetrahydro-2H-pyran-3-yl)imidazolidin-4-yl]methyl}-2-phenyl-2H-1,2,3-triazole-4-carboxamide] |
| 170 | 22 | O=C1NC(=O)C(CNC(=O)c2cnn(-c3ccccc3)n2)(C2CCOC2)N1 (racemic) [Example 19, rac-N-{[2,5-dioxo-4-(tetrahydrofuran-3-yl)imidazolidin-4-yl]methyl}-2-phenyl-2H-1,2,3-triazole-4-carboxamide] |
| 265 | 14.5 | CC(C)C1(CNC(=O)c2cnn(-c3ccccc3)n2)NC(=O)NC1=O (racemic) [Example 48, rac-N-[(2,5-dioxo-4-(propan-2-yl)imidazolidin-4-yl)methyl]-2-phenyl-2H-1,2,3-triazole-4-carboxamide] |
| 70 | 15 | CC(C)(C)C1(CNC(=O)c2cnn(-c3ccccc3)n2)NC(=O)NC1=O (racemic) [Example 49, rac-[(4-tert-butyl-2,5-dioxoimidazolidin-4-yl)methyl]-2-phenyl-2H-1,2,3-triazole-4-carboxamide] |
| 191 |  | O=C1NC(=O)C(CNC(=O)c2cnn(-c3ccccc3)n2)(C2CCCC2)N1 (racemic) [Example 50, rac-N-[(4-cyclopentyl-2,5-dioxoimidazolidin-4-yl)methyl]-2-phenyl-2H-1,2,3-triazole-4-carboxamide] |
| 55 | 14 | O=C1NC(=O)C(CNC(=O)c2cnn(-c3ccccc3)n2)(C2CCC2)N1 (racemic) [Example 52, rac-N-[4-cyclobutyl-2,5-dioxoimidazolidin-4-yl)methyl]-2-phenyl-2H-1,2,3-triazole-4-carboxamide] |
| 145 |  | O=C1NC(=O)C(CNC(=O)c2cnn(-c3ccccc3)n2)(C2CCCCC2)N1 (racemic) [Example 53, rac-N-[(4-cyclohexyl-2,5-dioxoimidazolidin-4-yl)methyl]-2-phenyl-2H-1,2,3-triazole-4-carboxamide] |
| 380 |  | O=C1NC(=O)C(CNC(=O)c2cnn(-c3ccc(F)cc3)n2)(C2CCCC2)N1 (racemic) [Example 66, rac-N-[(4-cyclopentyl-2,5-dioxoimidazolidin-4-yl]methyl]-2-(4-fluorophenyl)-2H-1,2,3-triazole-4-carboxamide] |
|  | 0.975 | O=C1NC(=O)C(CNC(=O)c2cnn(-c3ccc(Cl)c(F)c3)n2)(C2CCC2)N1 (single isomer, unassigned; ent-2) [Example 89, ent-2-(4-chloro-3-fluorophenyl)-N-[(4-cyclobutyl-2,5-dioxoimidazolidin-4-yl)methyl]-2H-1,2,3-triazole-4-carboxamide] |
